Data from patent US20200002382A1, “Method for manufacturing oxytocin by liquid-phase polypeptide synthesis” (LANZHOU KAIBO PHARMACEUTICAL CO., LTD., priority 2017, published 2020).
Read-outs that look alike come from different tables or passages of the source.

What was measured:
[1] = Biological value of the pure oxytocin product by the content determination method of the European Pharmacopoeia; conditions: pure oxytocin from the liquid-phase synthesis; European Pharmacopoeia (version 8.0) content determination method, European Pharmacopoeia standards as standard materials; water and acetic acid removed
Source text: In order to solve the problems existing in the present oxytocin synthesis technology, the invention provides a liquid-phase synthesis technique of oxytocin characterized by high productivity, low cost, safe environment, mild reaction conditions, high level of purity and biological value and great possibility for industrial production. The pure product of oxytocin provided by the invention has a content of 98.1% and a biological value of 588 IU/mg measured by the content determination method according to the European Pharmacopoeia (version 8.0).
Liquid contained oxytocin with purity above 99% is collected, concentrated at 25° C., desalted by PS polymer, concentrated, and freeze-dried to obtain the pure product of oxytocin (the HPLC image is shown in the attached drawings). The pure product of oxytocin provided by the invention has a content of 98.1% and a biological value of 588 IU/mg measured by the content determination method according to the European Pharmacopoeia, with the European Pharmacopoeia standards used as the standard materials. […]

[2] = Photaki synthesis: 1,2-diiodoethane disulfide formation, HBr/AcOH deprotection, purified product; cited from earlier work

**Q.** With `CC[C@H](C)[C@@H]1NC(=O)[C@H](Cc2ccc(O)cc2)NC(=O)[C@@H](N)CSSC[C@@H](C(=O)N2CCC[C@H]2C(=O)N[C@@H](CC(C)C)C(=O)NCC(N)=O)NC(=O)[C@H](CC(N)=O)NC(=O)[C@H](CCC(N)=O)NC1=O` [oxytocin, Oxytocin] as the compound, how does the biological value [1] read?
**A.** 588 IU/mg

**Q.** What about the biological value [2] of the same compound?
**A.** 380 IU/mg
